Data from patent US20240192196A1, “NOVEL C[…]-CoV-2 SAFE REPLICON SYSTEM AND USE THEREOF” (SUN YAT-SEN UNIVERSITY, priority 2020, published 2024).

Tested on: novel coronavirus SARS-COV-2 safe replicon system
Assay: microbe, parasite or virus in culture
Type: cell-based
Conditions: Severe acute respiratory syndrome coronavirus 2, HEK-293T, read-out: IC50 (semi-inhibitory concentration), inhibition of cellular luciferase activity

| Structure (SMILES) | IC50 [µM] |
| --- | --- |
| CCC(CC)COC(=O)[C@H](C)N[P@](=O)(OC[C@H]1O[C@@](C#N)(c2ccc3c(N)ncnn23)[C@H](O)[C@@H]1O)Oc1ccccc1 [Remdesivir] | 12.4 ± 1.08 |
| Cc1cccc(C)c1OCC(=O)N[C@@H](Cc1ccccc1)[C@@H](O)C[C@H](Cc1ccccc1)NC(=O)[C@H](C(C)C)N1CCCNC1=O [Lopinavir] | 6.79 ± 1.09 |
